The nature of the series: Determination of total drug concentration in rat brain (BBB penetration). In kind it is in vivo. The following applies: male SD rat, 2 mg/kg IV infusion for 4 hours, brain collected at end of 4 hours.

Turning to `C=CC(=O)N1C[C@H](C)N(c2nc(=O)n3c4c(c(-c5cc(Cl)c(F)cc5F)c(Cl)cc24)SC[C@@H]3CN2CCN(CC(F)F)CC2)C[C@H]1C` [Example 13-56], the BBB activity entry is reported as “− (Compounds that did not meet this threshold are indicated as “−”)”.

With `C=CC(=O)N1C[C@H](C)N(c2nc(=O)n3c4c(c(-c5cc(F)c(F)cc5F)c(C(F)(F)F)cc24)SC[C@@H]3CN2CCN(CC(F)F)CC2)C[C@H]1C` [Example 13-57], the BBB activity entry is “− (Compounds that did not meet this threshold are indicated as “−”)”. To `C=CC(=O)N1C[C@H](C)N(c2nc(=O)n3c4c(c(-c5ccc(F)cc5F)c(Cl)cc24)OC[C@H]3CC2CCN(CC(F)F)CC2)C[C@H]1C` [Example 13-59] belongs “− (Compounds that did not meet this threshold are indicated as “−”)”; to `C=CC(=O)N1CCN(c2nc(=O)n3c4c(c(-c5ccc(F)cc5F)c(Cl)cc24)SCCC3)[C@@H](C)C1` [Example 13-61], “− (Compounds that did not meet this threshold are indicated as “−”)”; to `C=CC(=O)N1[C@H](C)CN(c2nc(=O)n3c4c(c(-c5cc(Cl)c(F)cc5F)c(C(F)(F)F)cc24)CC[C@@H]3CC2CCC3(CC2)COC3)C[C@@H]1C` [Example 13-63], “− (Compounds that did not meet this threshold are indicated as “−”)”.

As for `C=CC(=O)N1[C@H](C)CN(c2nc(=O)n3c4c(c(-c5ccc(F)cc5)c(C(F)(F)F)cc24)SC[C@@H](OCCF)C3)C[C@@H]1C` [Example 13-64], the BBB activity result was “− (Compounds that did not meet this threshold are indicated as “−”)”. To `C=CC(=O)N1[C@H](C)CN(c2nc(=O)n3c4c(c(-c5ccc(F)cc5)c(C(F)(F)F)cc24)SC[C@@H](COC)C3)C[C@@H]1C` [Example 13-65] belongs “− (Compounds that did not meet this threshold are indicated as “−”)”.

Regarding `C=CC(=O)C1[C@H](C)CN(c2nc(=O)n3c4c(c(-c5ccc(F)cc5)c(C(F)(F)F)cc24)SC[C@@H](OC)C3)C[C@@H]1C` (stereo partly drawn) [Example 13-66], the BBB activity entry is listed as “− (Compounds that did not meet this threshold are indicated as “−”)”.

As for `C=CC(=O)N1CCN(c2nc(=O)n3c4c(c(-c5c(F)cc(F)c6ccccc56)c(Cl)cc24)SCC3)[C@@H](C)C1` [Example 13-67], the BBB activity entry is recorded as “− (Compounds that did not meet this threshold are indicated as “−”)”. Regarding `C=CC(=O)N1[C@H](C)CN(c2nc(=O)n3c4c(c(-c5ccc(F)c6sccc56)c(C(F)(F)F)cc24)SC[C@@H]3COC)C[C@@H]1C` [Example 13-68], the BBB activity result is listed as “− (Compounds that did not meet this threshold are indicated as “−”)”.

Consider `C=CC(=O)N1[C@H](C)CN(c2nc(=O)n3c4c(c(-c5ccc(F)cc5)c(Cl)cc24)SC[C@@H](OC)C3)C[C@@H]1C` [Example 13-69], for which the BBB activity result is given as “− (Compounds that did not meet this threshold are indicated as “−”)”. Turning to `C=CC(=O)N1[C@H](C)CN(c2nc(=O)n3c4c(c(-c5ccc(F)cc5F)c(C(F)(F)F)cc24)SC[C@@H](OC)C3)C[C@@H]1C` [Example 13-72], the BBB activity entry was “− (Compounds that did not meet this threshold are indicated as “−”)”. For `C=CC(=O)N1C[C@H](C)N(c2nc(=O)n3c4c(c(-c5cc(Cl)c(F)cc5F)c(C(F)(F)F)cc24)CC[C@@H]3CN2CCC3(CC2)COC3)C[C@H]1C` [Example 13-74], the BBB activity entry was “− (Compounds that did not meet this threshold are indicated as “−”)”. Regarding `C=C(F)C(=O)N1CCN(c2nc(OC[C@H]3CCCN3C)nc3c2CCN(c2cccc4cccc(Cl)c24)C3)C[C@@H]1CC#N` [Example 13-75], the BBB activity entry is recorded as “− (Compounds that did not meet this threshold are indicated as “−”)”. As for `C=CC(=O)N1C[C@H](C)N(c2nc(=O)n3c4c(c(-c5ccc(F)cc5F)c(Cl)cc24)OC[C@H]3CCCN2C[C@H]3C[C@@H]2CO3)C[C@H]1C` [Example 13-76], the entry is “− (Compounds that did not meet this threshold are indicated as “−”)”; as for `C=CC(=O)N1[C@H](C)CN(c2nc(=O)n3c4c(c(-c5ccc(F)c(Cl)c5)c(C(F)(F)F)cc24)SC[C@@H](OCOC)C3)C[C@@H]1C` [Example 13-78], “− (Compounds that did not meet this threshold are indicated as “−”)”; as for `C=CC(=O)N1C[C@H](C)N(c2nc(=O)n3c4c(c(-c5ccc(F)cc5)c(C(F)(F)F)cc24)SCC2(COC2)C3)C[C@H]1C` [Example 13-79], “− (Compounds that did not meet this threshold are indicated as “−”)”.

For the compound `C=CC(=O)N1C[C@H](C)N(c2nc(=O)n3c4c(c(-c5ccc(F)cc5F)c(Cl)cc24)OC[C@H]3CCCN2CCC(F)(F)C2)C[C@H]1C` [Example 13-80], the BBB activity result was “− (Compounds that did not meet this threshold are indicated as “−”)”. In the case of `C=CC(=O)N1CCN(c2nc(=O)n3c4c(c(-c5cc(Cl)c(F)cc5F)c(Cl)cc24)OC[C@@H]3CN2CCN(CC(F)F)CC2)[C@@H](C)C1` [Example 13-81], the BBB activity result is on record as “− (Compounds that did not meet this threshold are indicated as “−”)”. Consider `C=CC(=O)N1[C@H](C)CN(c2nc(=O)n3c4c(c(-c5ccc(F)c(Cl)c5)c(C(F)(F)F)cc24)SC[C@@H](OCC)C3)C[C@@H]1C` [Example 13-82], for which the BBB activity result was “− (Compounds that did not meet this threshold are indicated as “−”)”. Turning to `C=CC(=O)N1[C@H](C)CN(c2nc(=O)n3c4c(c(-c5ccc(F)cc5)c(C(F)(F)F)cc24)SC[C@@H](OCOC)C3)C[C@@H]1C` [Example 13-83], the BBB activity entry is listed as “− (Compounds that did not meet this threshold are indicated as “−”)”. As to `C=CC(=O)N1[C@H](C)CN(c2nc(=O)n3c4c(c(-c5cc(Cl)c(F)cc5F)c(C(F)(F)F)cc24)SC[C@@H](N2CCOCC2)C3)C[C@@H]1C` [Example 13-84], the BBB activity entry was “− (Compounds that did not meet this threshold are indicated as “−”)”.

For `C=CC(=O)N1C[C@H](C)N(c2nc(=O)n3c4c(c(-c5ccc(F)cc5F)c(Cl)cc24)OC[C@H]3CC2CCN(C)CC2)C[C@H]1C` [Example 13-85], the BBB activity result is recorded as “− (Compounds that did not meet this threshold are indicated as “−”)”. `C=CC(=O)N1[C@H](C)CN(c2nc(=O)n3c4c(c(-c5cc(Cl)c(F)cc5F)c(C(F)(F)F)cc24)SC[C@@H]3CC2CCN(CC)CC2)C[C@@H]1C` [Example 13-86]: the BBB activity result is recorded as “− (Compounds that did not meet this threshold are indicated as “−”)”.

On to `C=CC(=O)N1[C@H](C)CN(c2nc(=O)n3c4c(c(-c5ccc(F)cc5F)c(C(F)(F)F)cc24)SCC2(COC2)C3)C[C@@H]1C` [Example 13-87], for which the BBB activity result is reported as “− (Compounds that did not meet this threshold are indicated as “−”)”. `C=CC(=O)N1CCN(c2nc(=O)n3c4c(c(-c5ccc(F)cc5F)c(C(F)(F)F)cc24)SC[C@@H]3CC2CCOCC2)[C@@H](C)C1` [Example 13-88]: the BBB activity result was “− (Compounds that did not meet this threshold are indicated as “−”)”. For `C=CC(=O)N1[C@H](C)CN(c2nc(=O)n3c4c(c(-c5ccc(F)cc5)c(C(F)(F)F)cc24)SCC(COC)(COC)C3)C[C@@H]1C` [Example 13-89], the BBB activity entry was “− (Compounds that did not meet this threshold are indicated as “−”)”. For the compound `C=CC(=O)N1[C@H](C)CN(c2nc(=O)n3c4c(c(-c5cc(Cl)c(F)cc5F)c(C(F)(F)F)cc24)SC[C@@H](Nc2ncccn2)C3)C[C@@H]1C` [Example 13-90], the BBB activity entry is recorded as “− (Compounds that did not meet this threshold are indicated as “−”)”. As to `C=CC(=O)N1C[C@H](C)N(c2nc(=O)n3c4c(c(-c5ccc(F)cc5F)c(C(F)(F)F)cc24)OC[C@@H]3COCCOC)C[C@H]1C` [Example 13-91], the BBB activity result is “− (Compounds that did not meet this threshold are indicated as “−”)”. Consider `C=CC(=O)N1CCN(c2nc(=O)n(-c3c(C)ccnc3C(C)C)c3nc(-c4c(O)cccc4F)c(F)cc23)[C@@H](C)C1` [Example 13-92], for which the BBB activity entry is given as “− (Compounds that did not meet this threshold are indicated as “−”)”.

Source of the values: patent US20230107642A1 (Erasca, Inc., priority 2020, published 2023).
